Assay results from paper PMC10331583, “Control of fibrosis with enhanced safety via asymmetric inhibition of prolyl‐tRNA synthetase 1” (EMBO Molecular Medicine, 2023).
“And” between values parts separate entries of the source, which are not always exact repeats. Equal entries are not always repeated. Where two headings read alike, the source gives them in different places.

How the values were obtained:
[1] = test system: TNT Quick Coupled Transcription/Translation System (luciferase synthesis); assay type: biochemical
[2] = test system: WI‐26 VA4 cells; assay: Collagen ELISA (secreted pro‐collagen I)
[3] = test system: WI‐26 VA4 cells; assay: Puromycin incorporation assay; assay type: cell-based, human; conditions: for activity at 0.1 µM: WI26VA4, 100 nM; for activity at 0.3 µM: WI26VA4, 300 nM; for activity at 1 µM: WI26VA4, 1000 nM; for activity at 3 µM: WI26VA4, 3000 nM; for activity at 5 µM: WI26VA4, 5000 nM; for activity at 10 µM: WI26VA4, 10000 nM
In short: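 WI‐26 VA4 cell lysates prepared in carbonate-bicarbonate buffer with protease inhibitor; 400 ng protein coated on ELISA plates 18 h at 4°C. Puromycin incorporated into proteins detected by antibody ELISA, absorbance 450 nm with 620 nm reference; outlier values excluded based on replicates and adjacent concentrations.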

[4] = log(inhibitor) vs. response, variable slope (four parameters), concentration in nM
[5] = log(inhibitor) vs. response, variable slope (four parameters)
[6] = Homo sapiens, read-out: Puromycin, % of control, average
[7] = Homo sapiens, read-out: Puromycin, % of control, single replicate

Question: Which results are given for `Cc1c(Cl)ccc2c1ncn2CC(=O)C[C@H]1NCCC[C@@H]1O` [DWN11748]?
Answer: TNT-luciferase % of control ([1]; 20000 nM, Experiment #2, replicates, 20 µM): 0.11 % of control and 0.0948 % of control and 0.12 % of control; TNT-luciferase % of control, average ([1]; 20000 nM): 0.35 % of control; TNT-luciferase % of control ([1]; 60000 nM, Experiment #1, replicates, 60 µM): 0.02 % of control (2×) and 0.0164 % of control; TNT-luciferase % of control ([1]; 60000 nM, Experiment #2, replicates, 60 µM): 0.000642 % of control and -0.00528 % of control and -0.00499 % of control; TNT-luciferase % of control, average ([1]; 60000 nM): 0.00775 % of control; TNT-luciferase % of control ([1]; 200000 nM, Experiment #1, replicates, 200 µM): 0.00754 % of control and 0.000331 % of control and -0.000994 % of control; TNT-luciferase % of control ([1]; 200000 nM, Experiment #2, replicates, 200 µM): 0.0019 % of control and 0.00487 % of control and -0.000321 % of control; TNT-luciferase % of control, average ([1]; 200000 nM): 0.00222 % of control; TNT-luciferase LogIC50 (best-fit value) [1, 4]: 3.407; IC50 ([1]; log(inhibitor) vs. response, variable slope (four parameters), unit from head concentration (nM), read-out: TNT-luciferase IC50 (best-fit value)): 2550 nM; Collagen, % of control (single replicates per experiment) ([2]; 3 nM, 0.003 µM): 95.16 % of control and 105.95 % of control and 100.28 % of control and 91.81 % of control and 92.46 % of control and 107.08 % of control and 97.10 % of control and 100.74 % of control and 124.62 % of control and 100.86 % of control; Collagen, % of control (single replicates per experiment) ([2]; 100 nM, 0.1 µM): 102.93 % of control and 54.86 % of control and 79.76 % of control and 92.40 % of control and 101.85 % of control and 87.72 % of control and 81.93 % of control and 104.58 % of control and 120.36 % of control; CC50/collagen IC50 ([2]; Fig 5E): 5.39; IC50 ([2]; Homo sapiens, WI26VA4, read-out: Collagen IC50 (best-fit value), log(inhibitor) vs. response, variable slope (four parameters) (converted)): 267 nM; activity at 0.03 µM ([2]; Homo sapiens, WI26VA4, read-out: Collagen, % of control (single replicates per experiment), 30 nM): 104%; activity at 0.3 µM ([2]; Homo sapiens, WI26VA4, read-out: Collagen, % of control (single replicates per experiment), 300 nM): 46.5%; activity at 1 µM ([2]; Homo sapiens, WI26VA4, read-out: Collagen, % of control (single replicates per experiment), 1000 nM): 7.82%; activity at 0.003 µM ([2]; Homo sapiens, WI26VA4, read-out: Collagen, % of control, average, 3 nM, average): 102%; activity at 0.01 µM ([2]; Homo sapiens, WI26VA4, read-out: Collagen, % of control, average, 10 nM, average): 100%; activity at 0.03 µM ([2]; Homo sapiens, WI26VA4, read-out: Collagen, % of control, average, 30 nM, average): 97.7%; activity at 0.1 µM ([2]; Homo sapiens, WI26VA4, read-out: Collagen, % of control, average, 100 nM, average): 88.9%; activity at 0.3 µM ([2]; Homo sapiens, WI26VA4, read-out: Collagen, % of control, average, 300 nM, average): 45.3%; activity at 1 µM ([2]; Homo sapiens, WI26VA4, read-out: Collagen, % of control, average, 1000 nM, average): 9.08%; activity at 3 µM ([2]; Homo sapiens, WI26VA4, read-out: Collagen, % of control, average, 3000 nM, average): 2.58%; activity at 10 µM ([2]; Homo sapiens, WI26VA4, read-out: Collagen, % of control, average, 10000 nM, average): 2.33%; Collagen HillSlope (best-fit value) [2, 5]: -2.011; Collagen LogIC50 (best-fit value) [2, 4]: 2.427; Relative (CC50)/(collagen IC50) ([2]; relative to HF, Fig 5E): 1.61; Puromycin, % of control, single replicate ([3]; 300 nM, 0.3 µM): 100.32 % of control and 98.22 % of control and 104.21 % of control and 104.56 % of control and 103.89 % of control and 104.45 % of control and 100.10 % of control and 97.92 % of control; Puromycin, % of control, single replicate ([3]; 1000 nM, 1 µM): 97.71 % of control and 98.10 % of control and 102.31 % of control and 107.16 % of control and 101.57 % of control and 105.82 % of control and 108.83 % of control; Puromycin, % of control, single replicate ([3]; 3000 nM, 3 µM): 32.63 % of control; Puromycin, % of control, single replicate ([3]; 5000 nM, 5 µM): 22.79 % of control and 22.67 % of control and 25.49 % of control and 25.64 % of control and 24.99 % of control and 25.25 % of control and 25.95 % of control and 25.31 % of control; Puromycin, % of control, single replicate ([3]; 10000 nM, 10 µM): 12.21 % of control and 11.47 % of control and 15.58 % of control and 13.74 % of control and 13.61 % of control and 15.33 % of control and 15.25 % of control and 13.38 % of control; Puromycin, % of control, single replicate ([3]; 100000 nM, 100 µM): 0.86 % of control and 1.09 % of control and 0.96 % of control and 0.69 % of control and 0.0546 % of control and 1.21 % of control and 1.52 % of control and 1.41 % of control and 1.00 % of control; activity at 0.1 µM [3, 6]: 106%; activity at 0.1 µM [3, 7]: 113%; activity at 0.3 µM [3, 6]: 102%; activity at 0.3 µM [3, 7]: 102%; activity at 1 µM [3, 6]: 103%; activity at 1 µM [3, 7]: 101%; activity at 3 µM [3, 6]: 31.2%; activity at 3 µM [3, 7]: 29.7%; activity at 5 µM [3, 6]: 24.6%; activity at 5 µM [3, 7]: 23.1%; activity at 10 µM [3, 6]: 13.7%; activity at 10 µM [3, 7]: 12.4%; activity at 30 µM ([3]; Homo sapiens, WI26VA4, 30000 nM, read-out: Puromycin, % of control, average): 1.05%; activity at 100 µM ([3]; Homo sapiens, WI26VA4, 100000 nM, read-out: Puromycin, % of control, average): 0.98%; IC50 ([3]; Homo sapiens, WI26VA4, log(inhibitor) vs. response, variable slope (four parameters), read-out: Puromycin, IC50 (best-fit value)): 2680 nM; Puromycin, HillSlope (best-fit value) [3, 5]: -2.365; Puromycin, LogIC50 (best-fit value) [3, 4]: 3.428
